Like-named read-outs stand apart in the source and are kept apart here.
Legend:
[1] = target: T1, PARP1 (Homo sapiens, UniProt P09874); assay: PARP1 colorimetric activity assay kit (BPS Bioscience); assay type: biochemical; settings: dose-response, mean ± SD, n = 3
T1 construct: purchased BPS Bioscience (San Diego, CA)

[2] = target: T2, PARP2 (Homo sapiens, UniProt Q9UGN5); assay: PARP2 colorimetric activity assay kit (BPS Bioscience); assay type: biochemical; settings: for IC50: dose-response, mean ± SD, n = 3; for SI (selectivity index) IC50(PARP1)/IC50(PARP2): values greater than 1.0 indicate selectivity towards PARP2
T2 construct: purchased BPS Bioscience (San Diego, CA)

[3] = target: T2, PARP2; parameters: method as in PMID 34482781; settings: values greater than 1.0 indicate selectivity towards PARP2; cited from earlier work
[4] = target: T1, PARP1; assay: PARP1 colorimetric activity assay kit (BPS Bioscience); assay type: biochemical; settings: 1 µM concentration of the inhibitor, mean ± SD, n = 3
Procedure: The initial screening was performed against PARP1 at 1 µM concentration of each compound, in triplicate (n = 3) measurements.

[5] = Stability in human plasma; assay type: in vitro ADME; settings: after incubation (4 h) with human plasma
[6] = Stability in the presence of human liver microsomes; assay type: in vitro ADME
[7] = Stability in the presence of hepatic S9 fraction; assay type: in vitro ADME
[8] = Plasma protein binding; assay type: in vitro ADME
[9] = Solubility in pH 7.4 phosphate buffer; assay type: physicochemical; settings: aqueous buffer; pH 7.4 0.01 M phosphate buffer solution

T1 sequence (P09874 whole entry): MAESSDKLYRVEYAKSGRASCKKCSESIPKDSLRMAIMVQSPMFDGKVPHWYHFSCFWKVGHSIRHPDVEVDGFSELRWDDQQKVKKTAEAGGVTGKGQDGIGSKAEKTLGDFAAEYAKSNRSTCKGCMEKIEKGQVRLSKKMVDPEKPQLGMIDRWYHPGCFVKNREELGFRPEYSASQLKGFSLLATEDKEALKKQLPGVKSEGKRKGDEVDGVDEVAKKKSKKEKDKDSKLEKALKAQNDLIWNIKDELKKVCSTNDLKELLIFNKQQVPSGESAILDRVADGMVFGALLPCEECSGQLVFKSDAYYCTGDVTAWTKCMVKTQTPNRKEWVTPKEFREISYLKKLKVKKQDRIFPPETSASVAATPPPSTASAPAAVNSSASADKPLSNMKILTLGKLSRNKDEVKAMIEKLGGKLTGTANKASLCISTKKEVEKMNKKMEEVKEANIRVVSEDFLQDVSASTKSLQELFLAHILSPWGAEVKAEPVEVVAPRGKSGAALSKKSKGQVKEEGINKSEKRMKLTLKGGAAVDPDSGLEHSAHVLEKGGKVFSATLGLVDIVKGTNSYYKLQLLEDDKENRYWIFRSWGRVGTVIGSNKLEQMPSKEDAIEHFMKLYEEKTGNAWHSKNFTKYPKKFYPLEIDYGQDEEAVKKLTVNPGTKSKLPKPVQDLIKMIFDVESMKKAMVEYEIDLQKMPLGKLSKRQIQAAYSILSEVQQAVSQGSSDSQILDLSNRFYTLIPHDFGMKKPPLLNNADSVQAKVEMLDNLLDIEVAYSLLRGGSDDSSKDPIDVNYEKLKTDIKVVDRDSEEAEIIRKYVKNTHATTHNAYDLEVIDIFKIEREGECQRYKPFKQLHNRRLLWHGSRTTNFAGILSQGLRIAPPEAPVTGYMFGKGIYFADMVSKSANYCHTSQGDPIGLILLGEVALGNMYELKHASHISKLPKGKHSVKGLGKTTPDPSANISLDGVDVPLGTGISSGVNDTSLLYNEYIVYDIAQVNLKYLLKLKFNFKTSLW
T2 sequence (Q9UGN5 whole entry): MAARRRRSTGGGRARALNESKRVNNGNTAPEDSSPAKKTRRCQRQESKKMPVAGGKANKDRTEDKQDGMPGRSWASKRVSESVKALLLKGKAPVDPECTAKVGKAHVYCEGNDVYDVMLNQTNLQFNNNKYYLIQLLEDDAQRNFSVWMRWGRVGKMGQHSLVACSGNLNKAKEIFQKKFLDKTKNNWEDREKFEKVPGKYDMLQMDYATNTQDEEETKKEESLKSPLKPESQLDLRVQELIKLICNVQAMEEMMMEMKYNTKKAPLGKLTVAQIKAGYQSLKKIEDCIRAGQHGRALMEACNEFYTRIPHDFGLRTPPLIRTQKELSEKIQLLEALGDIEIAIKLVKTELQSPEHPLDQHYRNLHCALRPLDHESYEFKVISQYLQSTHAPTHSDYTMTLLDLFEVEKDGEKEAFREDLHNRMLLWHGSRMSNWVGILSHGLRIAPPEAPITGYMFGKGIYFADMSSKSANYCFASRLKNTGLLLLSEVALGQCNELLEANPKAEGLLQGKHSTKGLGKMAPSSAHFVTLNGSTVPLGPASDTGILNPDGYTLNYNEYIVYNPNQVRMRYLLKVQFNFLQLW

IC50 [1] | IC50 [2] | SI (selectivity index) IC50(PARP1)/IC50(PARP2) [2] | inhibition at 1 µM [4] | SMILES | also measured
160 ± 18.6 nM |  |  |  | CC(C)[C@H]1NC(=O)c2ccccc2[C@@H]1C(=O)N1CCC(N2CCCCC2)CC1 [Compound 2d] | 
26.4 ± 4.1 nM | 18.3 ± 4.5 nM | 1.44 |  | O=C1N[C@H](C2CC2)[C@@H](C(=O)N2CCC(N3CCCCC3)CC2)c2ccccc21 [Compound 2e] | 
> 500 nM | > 500 nM |  |  | O=C1N[C@H](C2CCCC2)[C@@H](C(=O)N2CCC(N3CCCCC3)CC2)c2ccccc21 [Compound 2l] | 
 |  |  |  | O=C1NCC(C(=O)N2CCC(N3CCCCC3)CC2)c2ccccc21 (stereo not shown) [Compound 1a] | SI (selectivity index) IC50(PARP1)/IC50(PARP2) [3]: 2.23
55.4 ± 8.8 nM | 39.9 ± 7.3 nM | 1.39 |  | O=C1N[C@H](c2ccc(F)cc2)[C@@H](C(=O)N2CCC(N3CCCCC3)CC2)c2ccccc21 [Compound 2b] | 
44.6 ± 5.6 nM | 11 ± 2.2 nM | 4.05 |  | CC[C@H]1NC(=O)c2ccccc2[C@@H]1C(=O)N1CCC(N2CCCCC2)CC1 [Compound 2c] | 
87.9 ± 10.2 nM | 69.5 ± 12.8 nM | 1.26 |  | O=C1N[C@H](c2ccccc2)[C@@H](C(=O)N2CCC(N3CCCCC3)CC2)c2ccccc21 [Compound 2a] | 
 |  |  | 24.1 ± 6% | CC(C)(C)[C@H]1NC(=O)c2ccccc2[C@@H]1C(=O)N1CCC(N2CCCCC2)CC1 [Compound 2f] | 
 |  |  | 5.1 ± 6.6% | O=C1NC2(CCOCC2)[C@@H](C(=O)N2CCC(N3CCCCC3)CC2)c2ccccc21 [Compound 2j] | 
 |  |  | 4 ± 7.4% | CC1(C)NC(=O)c2ccccc2[C@@H]1C(=O)N1CCC(N2CCCCC2)CC1 [Compound 2h] | 
 |  |  | 10.6 ± 9.7% | O=C1NC2(CCCC2)[C@@H](C(=O)N2CCC(N3CCCCC3)CC2)c2ccccc21 [Compound 2k] | 
87 ± 8.3 nM | 105 ± 20.8 nM | 0.83 |  | CC(C)C[C@H]1NC(=O)c2ccccc2[C@@H]1C(=O)N1CCC(N2CCCCC2)CC1 [Compound 2g] | 
22 ± 3.2 nM | 4.3 ± 0.5 nM | 5.1 |  | O=C1NC(C2CC2)C(C(=O)N2CCC(N3CCCCC3)CC2)c2ccc(F)cc21 (stereo not shown) [Compound 6, 4-([1,4′-bipiperidine]-1′-carbonyl)-3-cyclopropyl-7-fluoro-3,4-dihydroisoquinolin-1(2H)-one] | Stability Plasma (% compound remaining) [5]: 100%; Stability HLM [6]: 3.8 µL/min/mg; Stability S9 [7]: 0.1 µL/min/mg; PPB (plasma protein binding) [8]: 71.0 % bound; solubility [9]: > 100 µM
95.7 ± 17.7 nM | 29.2 ± 3.4 nM | 3.28 |  | C[C@H]1NC(=O)c2ccccc2[C@@H]1C(=O)N1CCC(N2CCCCC2)CC1 [Compound 2m] | 
 |  |  | 12.1 ± 7.2% | O=C1NC2(CCCCC2)[C@@H](C(=O)N2CCC(N3CCCCC3)CC2)c2ccccc21 [Compound 2i] | 
 |  |  |  | O=C(c1cc(Cc2n[nH]c(=O)c3ccccc23)ccc1F)N1CCN(C(=O)C2CC2)CC1 [Olaparib, reference compound] | Stability Plasma (% compound remaining) [5]: 100%; Stability HLM [6]: 15 µL/min/mg; Stability S9 [7]: 1.1 µL/min/mg; PPB (plasma protein binding) [8]: 90.2 % bound; solubility [9]: > 100 µM

Source: publication PMC8409965, “Three-component Castagnoli-Cushman reaction with ammonium acetate delivers 2-unsubstituted isoquinol-1-ones as potent inhibitors of poly(ADP-ribose) polymerase (PARP)” (Journal of Enzyme Inhibition and Medicinal Chemistry, 2021)
